Legend:
Type in all cases: physicochemical
[1] = Breakdown products by GCMS after Maillard reaction in the presence of Histidine; settings: 160° C.; for 2-Butanone concentration / 2-Propanone, 1-hydroxy- concentration / Diacetyl (2,3-Butanedione) concentration: Carbonyls/ketones; for Furan, 2-methyl- concentration / Furfural concentration: Furans; for Pyrazine, 2,5-diethyl- concentration / Pyrazine, 2,5-dimethyl- concentration / Pyrazine, 2-ethyl-5-methyl- concentration / Pyrazine, ethyl- concentration / Pyrazine, methyl- concentration: Pyrazines
Procedure: (§1) Controls were prepared addition of 1 mL of pH 7 buffer to the amino acids. The samples were rapidly heated to 160° C. and held at this temperature for 10 min. Samples were rapidly cooled afterwards, and absorbance at 500 nm was measured for each reaction mixture. Volatiles were analysed using gas chromatography mass spectrometry (GCMS) analysis. An Agilent Technologies 5975B Inert XL MSD gas chromatography, single quadruple mass spectrometer was used for analysis of volatiles. Samples were added to separate GCMS headspace vials and weighed. 0.03 g of 0.01% 3-heptanone in water was added and the vial was sealed for GCMS solid phase micro extraction (SPME) analysis. Samples were analysed in a randomized order. Samples were incubated and agitated at 250 RPM, at 60° C. for 15 min prior to SPME analysis of volatiles. The SPME fibre (50/30 DVB/CAR/PDMS, 23 Ga) extracted for 10 min, then thermally desorbed at 250° C. for 5 min. A 30 m×0.25 mm×0.25 μm HP-5MS column was used (Phenomenex, UK). Oven temperature settings: 31° C.-5 min, 5° C./min to 150° C., 30° C./min to 240° C. Inlet settings: 250° C., pressure 10.4 psi, flow 11.2 mL/min, split ratio 7:1. MS operated in full scan mode from 40 to 400 m/z with a scan time of 0.2s. The peak area of the aroma compounds was compared to the peak of the internal standard 3-heptanone and corrected for the weight of the sample.
(§2) The concentration of the different classes of Maillard reaction breakdown products is presented in Tables 9B-E. The same data as Tables 9B-E is also presented in FIG. 27. Concentrations are in parts per billion of the difference non-enzymatic breakdown products for the different compositions at 160° C. analysed by GCMS.

[2] = Breakdown products by GCMS after Maillard reaction in the presence of Leucine; settings: Maillard reaction in the presence of Leucine, 160° C., GCMS; for 2-Butanone concentration / 2-Propanone, 1-hydroxy- concentration / Diacetyl (2,3-Butanedione) concentration: Carbonyls/ketones; for Furan, 2-methyl- concentration / Furfural concentration: Furans; for Pyrazine, 2,5-diethyl- concentration / Pyrazine, 2,5-dimethyl- concentration / Pyrazine, 2-ethyl-5-methyl- concentration / Pyrazine, ethyl- concentration / Pyrazine, methyl- concentration: Pyrazines; for Isovaleraldehyde (Butanal, 3-methyl-) concentration: Strecker aldehydes
Procedure: as §1, §2

[3] = Breakdown products by GCMS after Maillard reaction in the presence of Tryptophan; settings: with Tryptophan, pH 7, 160° C., 10 min
Procedure: as §1, §2

[4] = Breakdown products by GCMS without an amino acid present; settings: pH 7, 160° C., 10 min
Procedure: as §1, §2

| SMILES | 2-Butanone concentration [1] [ppb] | 2-Propanone, 1-hydroxy- concentration [1] [ppb] | Diacetyl (2,3-Butanedione) concentration [1] [ppb] | Furan, 2-methyl- concentration [1] [ppb] | Furfural concentration [1] [ppb] | Pyrazine, 2,5-diethyl- concentration [1] [ppb] | Pyrazine, 2,5-dimethyl- concentration [1] [ppb] | Pyrazine, 2-ethyl-5-methyl- concentration [1] [ppb] | Pyrazine, ethyl- concentration [1] [ppb] | Pyrazine, methyl- concentration [1] [ppb] | 2-Butanone concentration [2] [ppb] | 2-Propanone, 1-hydroxy- concentration [2] [ppb] | Diacetyl (2,3-Butanedione) concentration [2] [ppb] | Furan, 2-methyl- concentration [2] [ppb] | Furfural concentration [2] [ppb] | Pyrazine, 2,5-diethyl- concentration [2] [ppb] | Pyrazine, 2,5-dimethyl- concentration [2] [ppb] | Pyrazine, 2-ethyl-5-methyl- concentration [2] [ppb] | Pyrazine, ethyl- concentration [2] [ppb] | Pyrazine, methyl- concentration [2] [ppb] | also measured |
| --- | --- | --- | --- | --- | --- | --- | --- | --- | --- | --- | --- | --- | --- | --- | --- | --- | --- | --- | --- | --- | --- |
| N[C@@H](Cc1c[nH]cn1)C(=O)O [Histidine] | 1.25 | 0 | 2.2 | 0 | 0.02 | 0 | 0 | 0.38 | 0 | 0 |  |  |  |  |  |  |  |  |  |  |  |
| CC(C)C[C@H](N)C(=O)O [Leucine] |  |  |  |  |  |  |  |  |  |  | 2.04 | 0.23 | 3.75 | 0 | 0.03 | 0 | 0 | 1 | 0 | 0 | Isovaleraldehyde (Butanal, 3-methyl-) concentration [2]: 1.56 ppb |
| N[C@@H](Cc1c[nH]c2ccccc12)C(=O)O [Tryptophan] |  |  |  |  |  |  |  |  |  |  |  |  |  |  |  |  |  |  |  |  | Concentration of 2-Butanone [3]: 0.56 ppb; Concentration of 2-Propanone, 1-hydroxy- [3]: 0.05 ppb; Concentration of Diacetyl (2,3-Butanedione) [3]: 2.08 ppb; Concentration of Furan, 2-methyl- [3]: 0 ppb; Concentration of Furan, 2-pentyl- [3]: 0.03 ppb; Concentration of Furfural [3]: 0.02 ppb; Concentration of Indole [3]: 8.55 ppb; Concentration of Pyrazine, 2,5-diethyl- [3]: 0 ppb; Concentration of Pyrazine, 2,5-dimethyl- [3]: 0 ppb; Concentration of Pyrazine, 2-ethyl-5-methyl- [3]: 0.26 ppb; Concentration of Pyrazine, ethyl- [3]: 0 ppb; Concentration of Pyrazine, methyl- [3]: 0 ppb |
| O=C[C@H](O)[C@@H](O)[C@H](O)CO [Xylose] | 53.5 | 196.75 | 32.61 | 28.4 | 15.26 | 17.88 | 587.06 | 288.64 | 4.48 | 5.22 | 212.85 | 647.73 | 458.75 | 170.12 | 118.44 | 84.11 | 2510.13 | 1146.75 | 59.9 | 496.33 | Isovaleraldehyde (Butanal, 3-methyl-) concentration [2]: 15873.58 ppb; Concentration of 2-Butanone [4]: 75.3 ppb; Concentration of 2-Propanone, 1-hydroxy- [4]: 196.36 ppb; Concentration of 5-methyl furfural [4]: 27.19 ppb; Concentration of Diacetyl (2,3-Butanedione) [4]: 267.18 ppb; Concentration of Furan, 2-methyl- [4]: 7.83 ppb; Concentration of Furfural [4]: 65.56 ppb; Concentration of 2-Butanone [3]: 70.81 ppb; Concentration of 2-Propanone, 1-hydroxy- [3]: 227.11 ppb; Concentration of Diacetyl (2,3-Butanedione) [3]: 55.57 ppb; Concentration of Furan, 2-methyl- [3]: 52.32 ppb; Concentration of Furan, 2-pentyl- [3]: 6.28 ppb; Concentration of Furfural [3]: 0.15 ppb; Concentration of Indole [3]: 53.49 ppb; Concentration of Pyrazine, 2,5-diethyl- [3]: 25 ppb; Concentration of Pyrazine, 2,5-dimethyl- [3]: 751.39 ppb; Concentration of Pyrazine, 2-ethyl-5-methyl- [3]: 394.72 ppb; Concentration of Pyrazine, ethyl- [3]: 13.61 ppb; Concentration of Pyrazine, methyl- [3]: 59.72 ppb |

From patent publication US20240114940A1, “SACCHARIDE COMPOSITIONS HAVING SUCROSE-LIKE CHARACTERISTICS AND RELATED METHODS” (priority 2021, published 2024)
